Assay results taken from patent publication US5728829A, “Process of preparing benzodiazepine compounds useful as antagonists of CCK or of gastrine” (Ferring-Research Limited, priority 1993, dated 1998).
Where two headings read alike, the source gives them in different places.

Experiments:
[1] = test system: pentagastrin-stimulated gastric acid secretion; assay: Measurement of inhibition of pentagastrin-stimulated gastric acid secretion in rat; format: in vivo; conditions: intravenous; for % Inhibition (maximum inhibition of gastric acid secretion): at 0.1 μmol/kg, mean for 3-5 animals; for ED50: read-out: ED50 (dose reducing secreted gastric acid to 50% of the maximum level), table 3, "Relative ED50 values", anaesthetised rat, pentagastrin 15 μg/Kg/hr
Source text: Measurement of inhibition of pentagastrin-stimulated gastric acid secreation in rat
A cannula was inserted into the trachea of a rat anaesthetised with urethane (intraperitoneally administered, 1.25 g/Kg), its abdominal wall was incised to expose the gastric and duodenal portions, and a polyethylene cannula was set in the anterior stomach after ligation of the cardia. The duodenum was then subjected to slight section, a polyethylene cannnula was inserted from the incised portion toward the stomach, and the pylorus was ligated to fix the cannula.
Physiological saline (with pH adjusted to 7.0) was perfused from the anterior stomach toward the pylorus at a rate of 3 ml/min, and the gastric-acid secreation was measured by continuous titration of the perfusate by the use of a pH-stat (AUT-201; product of Toa Electronics, Ltd.). The continuous titration was carried out by using 25 mM NaOH solution until the pH reached 7.0, and the result was expressed as the amount of gastric acid secreted for every 10 minutes (μEq /10 min.). Pentagastrin was intravenously administered at a rate of 15 μg/Kg/hr.
The secretion of gastric acid increased upon administration of pentagastrin, reaching the maximum level after 60 minutes and stably maintaining this level after that.

[2] = target: T1, CCK-B receptor (Rattus norvegicus, UniProt P30553); assay: Measurement of binding affinity for CCK-B receptors ([125I]BH-CCK-8, rat brain membranes); design: species or system SD rat
T1 construct: the whole brain was immediately excised from each of the rats and homogenized; from tissue; host or cells: SD rat whole brain membranes
T1 sequence (P30553 1-452): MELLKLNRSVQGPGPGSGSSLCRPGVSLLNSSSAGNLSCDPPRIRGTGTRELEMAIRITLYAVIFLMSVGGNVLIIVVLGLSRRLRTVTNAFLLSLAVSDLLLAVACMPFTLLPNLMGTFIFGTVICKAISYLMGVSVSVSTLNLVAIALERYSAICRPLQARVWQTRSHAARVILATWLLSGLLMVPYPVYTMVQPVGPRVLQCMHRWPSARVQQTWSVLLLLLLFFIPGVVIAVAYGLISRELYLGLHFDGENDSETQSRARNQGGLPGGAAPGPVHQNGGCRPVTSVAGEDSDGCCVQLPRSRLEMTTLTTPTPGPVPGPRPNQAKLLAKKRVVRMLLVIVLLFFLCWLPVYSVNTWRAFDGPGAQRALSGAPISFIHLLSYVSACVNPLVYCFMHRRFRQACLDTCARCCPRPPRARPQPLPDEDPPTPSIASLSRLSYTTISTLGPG
Experimental: About 100 SD rats were decapitated without anaesthesia, the whole brain was immediately excised from each of the rats and homogenized in 10-fold volume of 0.32M aqueous solution of sucrose by the use of a Teflon-coated homogenizer, the homogenate thus obtained was centrifuged for ten minutes at 900 G by the use of a cooled centrifuge, and the supernatant was further centrifuged for 15 minutes at 11500 G. The precipitate thus obtained was dispersed in 50 mM Tris-HCl buffer (pH 7.4) containing 0.08% Triton X-100, this suspension was allowed to stand for 30 minutes and again centrifuged for 15 minutes at 11500 G, the precipitate thus obtained was washed twice with 5 mM Tris-HCl buffer and twice with 50 mM Tris-HCl buffer in that order with centrifugal separation, the washed precipitate was suspended in 50 mM Tris-HCl buffer, and the suspension thus obtained was stored at -80° C. until the membrane preparation was required.
The membrane preparations were warmed to room temperature, diluted with 10 mM HEPES buffer (containing 130 mM NaCl, 5 mM MgCl2, 1 mM EGTA and 0.25 mg/ml bacitracin; pH 6.5) and incubated at 25° C. for 120 minutes in the presence of [^125 I]BH-CCK-8 and the test compound, then separated by suction filtration. Non-specific binding was determined in the presence of 1 μM CCK-8. The amount of labelled ligand bound to the receptor was measured by the use of a γ-counter, IC50 values were determined, being that concentration of test compound required to inhibit specific binding by 50%.

[3] = target: T2, CCK-A receptor (Rattus norvegicus, UniProt P30551); assay: Selectivity for the CCK-B receptor by comparison with binding to the CCK-A receptor in rats ([3H]L-364,718, pancreas membranes); design: species or system SD rat; conditions: table 2; for A/B Ratio: IC50 (CCK-A)/IC50 (CCK-B): higher value = better CCK-B selectivity; for IC50: rat pancreas membranes, [3H]L-364,718, 37 °C, 30 min, read-out: Receptor binding affinity IC50, CCK-A
T2 construct: The pancreas of an SD rat was homogenized; from tissue; host or cells: SD rat pancreas membranes
T2 sequence (P30551 1-444): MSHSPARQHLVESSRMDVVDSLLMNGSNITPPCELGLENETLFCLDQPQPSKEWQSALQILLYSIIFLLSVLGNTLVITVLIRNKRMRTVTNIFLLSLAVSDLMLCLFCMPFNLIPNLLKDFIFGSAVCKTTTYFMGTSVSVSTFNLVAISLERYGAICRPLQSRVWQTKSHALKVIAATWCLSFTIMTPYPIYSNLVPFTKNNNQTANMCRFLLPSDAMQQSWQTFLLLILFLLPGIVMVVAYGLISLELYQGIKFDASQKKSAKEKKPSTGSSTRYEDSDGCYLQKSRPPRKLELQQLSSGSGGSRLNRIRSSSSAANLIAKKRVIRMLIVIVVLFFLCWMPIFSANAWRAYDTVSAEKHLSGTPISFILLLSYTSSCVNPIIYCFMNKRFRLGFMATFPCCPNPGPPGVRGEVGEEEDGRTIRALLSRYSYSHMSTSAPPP
Experimental: Determination of selectivity for the CCK-B receptor by comparison with binding to the CCK-A receptor in rats
The pancreas of an SD rat was homogenized in a 20-fold volume of 50 mM Tris-HCl buffer (pH 7.7) by the use of a Polytrone-type homogenizer, the homogenate was twice centrifuged for 10 minutes at 50000 G by the use of an ultra-centrifuge, the precipitate thus obtained was suspended in a 40-fold volume of 50 mM Tris-HCl buffer (containing 0.2% BSA, 5 mM MgCl2, 0.1 mg/ml bacitracin and 5 mM DTF; pH 7.7), and the suspension was stored at -80° C. until the membrane preparations were required.
The membrane preparations were then warmed to room temperature, diluted 1:10 with the buffer and incubated at 37° C. for 30 minutes in the presence of [^3 H]L-364,718 and the test compound then separated by suction filtration. Non-specific binding was determined in the presence of 1 μM L-364,718.
A high affinity for the CCK-A receptor in a CCK-B/gastrin antagonist is thought to be undesirable as it may lead to side-effects such as cholestasis and gall stone formation during therapy. Therefore it is preferable for the therapeutic agent to be selective for the CCK-B receptor. This selectivity is expressed by the ratio IC50 (CCK-A)/IC50 (CCK-B); the higher the value of this ratio the better is the selectivity.

[4] = table 1, rat brain membranes, [125I]BH-CCK-8, 25 °C, 120 min, read-out: IC50 (CCK-B receptor binding)
[5] = table 2, rat brain membranes, [125I]BH-CCK-8, read-out: Receptor binding affinity IC50, CCK-B

SMILES	% Inhibition (maximum inhibition of gastric acid secretion) [1]	IC50 [2]	A/B Ratio: IC50 (CCK-A)/IC50 (CCK-B) [3]	IC50 [3]	IC50 [2, 4]	IC50 [2, 5]	ED50 [1]
Cc1cccc(NC(=O)NC2N=C(c3cnccn3)c3ccccc3N(CC(=O)C(C)(C)C)C2=O)c1 (racemic) [Example 5, N-((3RS)-1-tert-Butylcarbonylmethyl-2,3-dihydro-2-oxo-5-(2-pyrazinyl)-1H-1,4-benzodiazepin-3-yl)-N'-(3-methylphenyl)urea]	55.4%						
CN(C)c1cccc(NC(=O)NC2N=C(c3nccn3C)c3ccccc3N(CC(=O)C(C)(C)C)C2=O)c1 (racemic) [Example 2, N-((3RS)-1-tert-Butylcarbonylmethyl-2,3-dihydro-2-oxo-5-(2-(1-methyl)imidazolyl)-1H-1,4-benzodiazepin-3-yl)-N'-(3-dimethylaminophenyl)urea]	47.4%	2.08 nM	238	495 nM			
CN(C)c1cccc(NC(=O)N[C@@H]2N=C(c3ccccn3)c3ccccc3N(CC(=O)C(C)(C)C)C2=O)c1 [Example 22, N-((3R)-1-tert-Butylcarbonylmethyl-2,3-dihydro-2-oxo-5-(2-pyridyl)-1H-1,4-benzodiazepin-3-yl)-N'-((3-dimethylamino)phenyl)urea]			565	113 nM	0.2 nM	0.2 nM	0.011 µmol/kg
CN(C)c1cccc(NC(=O)NC2N=C(c3nccs3)c3ccccc3N(CC(=O)C(C)(C)C)C2=O)c1 (racemic) [Example 4, N-((3RS)-1-tert-Butylcarbonylmethyl-2,3-dihydro-2-oxo-5-(2-thiazolyl)-1H-1,4-benzodiazepin-3-yl)-N'-(3-dimethylaminophenyl)urea]	55.2%	0.63 nM	700	441 nM			
CN(C(=O)OC(C)(C)C)c1cccc(C(=O)O)c1 [Example 50, 3-(N-tert-Butoxylcarbonyl-N-methylamino)benzoic acid]					0.88 nM		
CNc1cccc(NC(=O)NC2N=C(c3ccccn3)c3ccccc3N(CC(=O)C(C)(C)C)C2=O)c1 (racemic) [Example 26, N-((3RS)-1-tert-Butylcarbonylmethyl-2,3-dihydro-2-oxo-5-(2-pyridyl)-1H-1,4-benzodiazepin-3-yl)-N'-(3-(methylamino)phenyl)urea]					1.4 nM		
Cc1cccc(NC(=O)N[C@@H]2N=C(c3ccccn3)c3ccccc3N(CC(=O)C(C)(C)C)C2=O)c1 [Example 42]					0.44 nM		0.016 µmol/kg
CN(C)c1cccc(NC(=O)NC2N=C(c3cnccn3)c3ccccc3N(CC(=O)C(C)(C)C)C2=O)c1 (racemic) [Example 6, N-((3RS)-1-tert-Butylcarbonylmethyl-2,3-dihydro-2-oxo-5-(2-pyrazinyl)-1H-1,4-benzodiazepin-3-yl)-N'-(3-dimethylaminophenyl)urea]	61.9%	0.22 nM					
Cc1cccc(NC(=O)NC2N=C(c3nccs3)c3ccccc3N(CC(=O)C(C)(C)C)C2=O)c1 (racemic) [Example 3, N-((3RS)-1-tert-Butylcarbonylmethyl-2,3-dihydro-2-oxo-5-(2-thiazolyl)-1H-1,4-benzodiazepin-3-yl)-N'-(3-methylphenyl)urea]	57.6%	0.8 nM	540	433 nM			
CNc1cccc(NC(=O)N[C@@H]2N=C(c3ccccn3)c3ccccc3N(CC(=O)C(C)(C)C)C2=O)c1 [Example 52, N(-((3R)-1-tert-Butylcarbonylmethyl-2,3-dihydro-2-oxo-5-(2-pyridyl)-1H-1,4-benzodiazepin-3-yl)-N'-3-methylaminophenyl)urea]			5020	502 nM		0.1 nM	
Cc1cccc(NC(=O)NC2N=C(c3nccn3C)c3ccccc3N(CC(=O)C(C)(C)C)C2=O)c1 (racemic) [Example 1, N-((3RS)-1-tert-Butylcarbonylmethyl-2,3-dihydro-2-oxo-5-(2-(1-methyl)imidazolyl)-1H-1,4-benzodiazepin-3-yl)-N'-(3-methylphenyl)urea]	48.9%		187				
CN(C)c1cccc(NC(=O)NC2N=C(c3ncc[nH]3)c3ccccc3N(CC(=O)C(C)(C)C)C2=O)c1 (racemic) [Example 8B, N-((3RS)-1-tert-Butylcarbonylmethyl-2,3-dihydro-5-(2-imidazolyl)-2-oxo-1H-1,4-benzodiazepin-3-yl)-N'-(3-dimethylaminophenyl)urea]		55.3 nM					
